Key:
[1] = tested on: patient with a past history of both eclampsia and HELLP syndrome; assay: Tacrolimus monotherapy in a patient with past history of eclampsia and HELLP syndrome (Example 4); type: in vivo, human; conditions: for ALT (U/L) / AST (U/L) / Cr / Hb / LDH (U/L) / Plt (10^4/uL) / WBC: blood examination, with tacrolimus treatment
Excerpt: The patient was a person (y.o.) […] with a past history of both eclampsia and HELLP syndrome. During the first pregnancy when the patient was […], they complained of physical deconditioning from early in their pregnancy. […] Sudden aggravation of the edema, proteinuria and hypertension appeared at 18 weeks gestation, at which time they were diagnosed with preeclampsia. HELLP syndrome and eclampsia occurred at 20 weeks gestation and a stillbirth required an emergency cesarean section. After delivery of the baby, they had severe complications such as pulmonary edema, disseminated intravascular coagulation, and intraperitoneal bleeding. They were medicated via an artificial respirator, and received albumin and a blood transfusion (Table 6). […] Laboratory findings related to infertility such as antiphospholipid syndrome (anti-CL IgG Ab, anti-CL IgM Ab, anti-β2GP-1 Ab, anti-PS/PT Ab, anti-PE IgG Ab, anti-PE IgM Ab), autoimmune disease (ANA and anti-DNA Ab), and disorders of blood coagulation (protein S activity, protein C activity, factor XII activity) were all negative. Although no obvious immunological abnormalities of the Th1(CD4^+IFN-γ+)/Th2 (CD4+IL-4^+) cell ratio (15.2/2.1) in CD4 positive cells (normal range, <10.3) were observed before pregnancy^46, it was assumed that maternal immunity would be activated by the embedding of a fertilized ovum (recognition of fetal antigens) and the abnormalities of maternal-fetal immunity may have inhibited placenta construction and caused fetal growth retardation and hypertension. The patient was treated with 1 mg/day of tacrolimus to control the maternal-fetal immunity. This patient received a monotherapy of tacrolimus without a concomitant treatment of a low dose of aspirin, which is often used as an anti-platelet agent for HDP^47. The course of the pregnancy was stable until the 3rd trimester, and no significant symptoms were observed during the 2nd trimester, at which point HELLP syndrome occurred in their previous pregnancy. Clinical signs of HELLP syndrome rapidly appeared, however, at 33 weeks gestation. A decrease in the Th1 and Th2 cell populations in CD4 positive cells and a reduction in the activity of NK cells over time post-partum were observed, which confirms that the tacrolimus regimen exerted sufficient suppressive effect on those cells, whereas the activity of NK cells was elevated at 32 weeks gestation. A possibility was speculated that NK cell activity was stimulated when a large number of fetal antigens were transferred to the maternal blood circulation after the suppression of the NK cells by the 1 mg/day dose of tacrolimus became insufficient in the 3rd trimester. […] Th1 and Th2 cell populations in CD4 positive cells and the NK cell activity were measured to evaluate the patient's pathological condition. One of the parameters, NK cell activity, indicated an appearance of abnormal maternal-fetal immunity. Other parameters that can be used to evaluate the failure of maternal tolerance for a fetus and activation of maternal immune rejection against a fetus with inflammation include Treg cells, Th17 cells, cytokines, and chemokines^37-44.

[2] = tested on: kidney transplant recipients with tacrolimus exposure during pregnancy; conditions: cited from earlier work
[3] = tested on: women with a history of or susceptible to pregnancy-induced hypertension syndrome; assay: Tacrolimus treatment of women at risk of pregnancy-induced hypertension syndrome (Example 3); type: in vivo, human
Method: Once pregnancy-induced hypertension syndrome develops, the possibility of experiencing repeated onset in the subsequent gestations is very high. The patients were evaluated through a transvaginal ultrasound examination, a Fallopian tube patency test, and hysteroscopy before an index ART cycle. […] Any women who had experienced miscarriage in the previous IVF cycle, who had received an IVF cycle, or who had received vaccination, all within three months, were excluded from the subjects. Any women with acquired or congenital thrombophilia were excluded from the subjects. All the patients were subjected to treatment with tacrolimus in the same manner as in Example 2. The dose of tacrolimus was 1 mg to 3 mg per day. The duration of administration of tacrolimus was from the time point immediately after establishment of pregnancy was confirmed by a pregnancy test, until the day of delivery, in all cases. In Case 1 and Case 3 described below, 3 mg of tacrolimus per day was administered everyday from the time point immediately after establishment of pregnancy was confirmed and until the second trimester of pregnancy, and 2 mg of tacrolimus per day was administered everyday from the third trimester of pregnancy until the delivery. In Case 2 described below, 2 mg of tacrolimus per day was administered everyday from the time point immediately after establishment of pregnancy was confirmed and until the delivery. The treatment was carried out in the same manner as in Example 2. The effects of administering tacrolimus were evaluated on the basis of whether the patients satisfactorily maintained the state of pregnancy without developing pregnancy-induced hypertension syndrome at predetermined time points between the second trimester and the third trimester of pregnancy. Cases in which the evaluation has been roughly completed are as follows.

[4] = Current pregnancy with tacrolimus treatment 1 mg/day
[5] = Current pregnancy with tacrolimus treatment 1 mg/day, after delivery
[6] = Current pregnancy with tacrolimus treatment 1 mg/day, before delivery
[7] = 236 babies born from kidney transplant recipients with tacrolimus exposure during pregnancy
[8] = kidney transplant recipients with tacrolimus exposure during pregnancy

Structure (SMILES): C=CCC1/C=C(\C)CC(C)CC(OC)C2OC(O)(C(=O)C(=O)N3CCCCC3C(=O)OC(/C(C)=C/C3CCC(O)C(OC)C3)C(C)C(O)CC1=O)C(C)CC2OC (stereo not drawn) [tacrolimus, 17-Allyl-1,14-dihydroxy-12-[2-(4-hydroxy-3-methoxycyclohexyl)-1-methylvinyl]-23,2 5-dimethoxy-13,19,21,27-tetramethyl-11,28-dioxa-4-azatricyclo[22.3.1.04,9]octacos-18-ene-2,3,10,16-tetraone]
- Fetal information: fetal growth [1, 4]: −1.9 SD
- start of proteinuria (weeks gstation) [1, 4]: 33 weeks gstation
- Symptoms: edema [1, 5]: slight
- Symptoms: hypertension [1, 5]: transient
- complications after deliverly [1, 5]: none
- Symptoms: edema [1, 6]: slight
- Symptoms: hypertension [1, 6]: not observed
- ALT (U/L) ([1]; after delivery): 833 U/L
- AST (U/L) ([1]; after delivery): 898 U/L
- Cr ([1]; after delivery): 0.59 mg/dL
- Hb ([1]; after delivery): 10.5 g/dL
- LDH (U/L) ([1]; after delivery): 1995 U/L
- Plt (10^4/uL) ([1]; after delivery): 2.2 10^4/uL
- WBC ([1]; after delivery): 8220 cells/µL
- ALT (U/L) ([1]; before delivery): 71 U/L
- AST (U/L) ([1]; before delivery): 65 U/L
- Cr ([1]; before delivery): 1 mg/dL
- Hb ([1]; before delivery): 11 g/dL
- LDH (U/L) ([1]; before delivery): 316 U/L
- Plt (10^4/uL) ([1]; before delivery): 10 10^4/uL
- WBC ([1]; before delivery): 8280 cells/µL
- Th1 and Th2 cell populations in CD4 positive cells ([1]; during pregnancy, with time, tacrolimus 1 mg/day (FIG. 1)): decrease
- NK cell activity ([1]; during pregnancy, normal range 18-40%, tacrolimus 1 mg/day (FIG. 1)): decreased in the 2nd trimester and then obviously increased at 32 weeks gestation
- course of the pregnancy stable with no emergence of proteinuria, edema or hypertension until ([1]; tacrolimus 1 mg/day monotherapy): 32 weeks gestation
- Clinical signs of HELLP syndrome appeared at ([1]; tacrolimus 1 mg/day monotherapy, previous pregnancy: 20 weeks gestation): 33 weeks gestation
- prolonged the timing of onset of HELLP syndrome ([1]; tacrolimus 1 mg/day versus previous pregnancy without treatment): about 13 weeks gestation
- neonatal death rate [2, 7]: 2%
- still born rate [2, 7]: 2%
- obstetrical complications: diabetes during pregnancy [2, 8]: 8%
- obstetrical complications: hypertension [2, 8]: 56%
- obstetrical complications: infection [2, 8]: 22%
- obstetrical complications: preeclampsia [2, 8]: 32%
- obstetrical complications: spontaneous abortion [2, 8]: 26%
- increase in blood pressure ([3]; Case 1 (intrauterine fetal death in week 38 in previous gestation), 3 mg per day until second trimester, 2 mg per day from third trimester until delivery): did not experience an increase in blood pressure
- gave birth to a healthy baby in week ([3]; Case 1, 3 mg per day until second trimester, 2 mg per day from third trimester until delivery): 39 week
- increase in blood pressure ([3]; Case 2 (twin pregnancy with infertilitas and positive anti-phosphorus antibody), 2 mg per day until delivery): did not experience an increase in blood pressure
- gave birth to a healthy baby in week ([3]; Case 2, 2 mg per day until delivery, premature rupture of the membrane caused by cough, premature birth of twin): 35 week
- edema and tendency of blood pressure increase ([3]; Case 3 (intrauterine fetal death in week 32 in previous gestation), 3 mg per day until second trimester, 2 mg per day from third trimester): without edema and without a tendency of blood pressure increase
- currently passing week of pregnancy ([3]; Case 3, 3 mg per day until second trimester, 2 mg per day from third trimester): 34 week

Reference: patent US12576070B2, “Medicine for improving state of pregnancy, and use thereof” (priority 2014, dated 2026)
